Common to all, as to test: Fluorometric binding to immobilized protein (FIG. 6)
One test concerns the target T1, C7 (Homo sapiens, UniProt P10643).
T1 construct: purchased Quidel, San Diego, CA
The note with it: compound 100 microgm/mL; protein 32 ng/mL. How it is done: (§1) The next set of experiments directly tested the binding of DAS-1 and DAS-2 to properdin, Factor D and complement proteins. These proteins were immobilized on microwell plates in a concentration range of 1-32 ng/mL. DAS-1 and DAS-2 were then added at a concentration of 100 microgm/mL and the solutions incubated as previously described. DAS-1 and DAS-2 binding to the proteins was then assayed according to a previously published fluorometric method except that the excitation frequency was […] and the emission frequency […]. […] Such binding explains why DAS-1 and DAS-2 block the alternative pathway at the stage where Factor D cleaves PC3B to form PC3Bb, and both the classical and alternative pathways at the stage where C9 adds to C5b678. […] There was no binding of DAS-1 or DAS-2 to properdin and only background fluorescence was observed.

The target of a further test is T2, C3 (Homo sapiens, UniProt P01024).
T2 construct: purchased Sigma, St. Louis, MO
The note with it: compound 100 microgm/mL; protein 32 ng/mL. How it is done:
as §1

Another test has as its target T3, C9 (Homo sapiens, UniProt P02748).
T3 construct: purchased Sigma, St. Louis, MO
Particulars: compound 100 microgm/mL; protein immobilized 1-32 ng/mL. How it is done:
as §1

T2 sequence (P01024 23-1663): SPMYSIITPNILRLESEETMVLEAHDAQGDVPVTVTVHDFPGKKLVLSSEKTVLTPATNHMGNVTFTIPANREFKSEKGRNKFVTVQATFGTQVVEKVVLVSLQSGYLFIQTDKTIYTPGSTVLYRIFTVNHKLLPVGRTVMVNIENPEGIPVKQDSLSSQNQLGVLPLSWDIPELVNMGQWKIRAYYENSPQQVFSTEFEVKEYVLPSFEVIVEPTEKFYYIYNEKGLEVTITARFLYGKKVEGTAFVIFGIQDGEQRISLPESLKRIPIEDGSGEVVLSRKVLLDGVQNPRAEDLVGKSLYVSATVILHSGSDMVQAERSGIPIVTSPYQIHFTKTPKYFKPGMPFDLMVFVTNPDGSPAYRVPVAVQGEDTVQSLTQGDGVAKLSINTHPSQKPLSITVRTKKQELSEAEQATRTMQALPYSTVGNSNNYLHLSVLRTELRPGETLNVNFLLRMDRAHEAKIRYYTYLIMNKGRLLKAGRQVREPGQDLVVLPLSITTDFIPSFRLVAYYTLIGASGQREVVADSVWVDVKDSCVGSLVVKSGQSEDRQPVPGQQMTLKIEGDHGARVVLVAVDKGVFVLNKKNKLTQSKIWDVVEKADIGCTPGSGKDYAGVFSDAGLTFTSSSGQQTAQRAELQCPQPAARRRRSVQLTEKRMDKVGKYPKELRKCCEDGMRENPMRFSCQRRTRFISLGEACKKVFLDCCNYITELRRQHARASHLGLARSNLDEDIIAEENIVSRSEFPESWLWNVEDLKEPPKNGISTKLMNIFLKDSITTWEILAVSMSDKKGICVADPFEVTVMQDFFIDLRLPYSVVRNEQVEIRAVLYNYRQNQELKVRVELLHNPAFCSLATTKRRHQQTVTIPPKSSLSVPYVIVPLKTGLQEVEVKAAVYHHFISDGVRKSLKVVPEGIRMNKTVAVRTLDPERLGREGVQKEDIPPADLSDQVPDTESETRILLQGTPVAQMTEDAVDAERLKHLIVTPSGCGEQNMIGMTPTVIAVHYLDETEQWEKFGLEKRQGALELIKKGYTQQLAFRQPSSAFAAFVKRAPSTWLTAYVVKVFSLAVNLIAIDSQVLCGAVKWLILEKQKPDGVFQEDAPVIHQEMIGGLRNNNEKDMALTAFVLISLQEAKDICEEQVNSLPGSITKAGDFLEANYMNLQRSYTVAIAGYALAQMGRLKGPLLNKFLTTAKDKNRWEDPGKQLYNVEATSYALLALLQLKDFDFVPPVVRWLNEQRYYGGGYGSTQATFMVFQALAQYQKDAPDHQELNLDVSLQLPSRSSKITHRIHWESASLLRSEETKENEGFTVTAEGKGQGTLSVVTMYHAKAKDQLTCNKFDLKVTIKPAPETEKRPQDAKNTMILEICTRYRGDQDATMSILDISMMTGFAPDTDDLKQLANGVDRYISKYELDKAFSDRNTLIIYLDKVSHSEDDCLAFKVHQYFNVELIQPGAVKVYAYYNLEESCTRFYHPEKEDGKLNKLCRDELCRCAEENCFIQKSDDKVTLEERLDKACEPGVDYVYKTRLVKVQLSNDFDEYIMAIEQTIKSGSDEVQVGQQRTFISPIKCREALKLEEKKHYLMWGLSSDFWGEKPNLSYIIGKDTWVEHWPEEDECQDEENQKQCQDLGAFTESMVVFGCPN
T3 sequence (P02748 22-559): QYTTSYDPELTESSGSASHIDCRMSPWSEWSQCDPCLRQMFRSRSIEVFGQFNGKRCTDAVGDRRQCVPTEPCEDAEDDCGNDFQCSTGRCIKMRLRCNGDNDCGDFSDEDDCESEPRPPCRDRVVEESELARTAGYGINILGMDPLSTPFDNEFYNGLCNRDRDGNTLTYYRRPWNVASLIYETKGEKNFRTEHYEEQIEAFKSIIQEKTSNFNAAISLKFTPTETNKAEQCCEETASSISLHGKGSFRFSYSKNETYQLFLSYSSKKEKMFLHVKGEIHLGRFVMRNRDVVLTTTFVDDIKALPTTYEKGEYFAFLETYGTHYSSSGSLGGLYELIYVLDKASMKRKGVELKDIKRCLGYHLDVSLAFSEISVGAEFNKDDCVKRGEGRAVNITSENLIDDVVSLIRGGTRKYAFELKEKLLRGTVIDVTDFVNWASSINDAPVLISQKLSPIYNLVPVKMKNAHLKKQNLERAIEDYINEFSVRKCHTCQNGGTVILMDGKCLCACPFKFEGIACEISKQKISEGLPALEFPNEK
T1 sequence (P10643 23-843): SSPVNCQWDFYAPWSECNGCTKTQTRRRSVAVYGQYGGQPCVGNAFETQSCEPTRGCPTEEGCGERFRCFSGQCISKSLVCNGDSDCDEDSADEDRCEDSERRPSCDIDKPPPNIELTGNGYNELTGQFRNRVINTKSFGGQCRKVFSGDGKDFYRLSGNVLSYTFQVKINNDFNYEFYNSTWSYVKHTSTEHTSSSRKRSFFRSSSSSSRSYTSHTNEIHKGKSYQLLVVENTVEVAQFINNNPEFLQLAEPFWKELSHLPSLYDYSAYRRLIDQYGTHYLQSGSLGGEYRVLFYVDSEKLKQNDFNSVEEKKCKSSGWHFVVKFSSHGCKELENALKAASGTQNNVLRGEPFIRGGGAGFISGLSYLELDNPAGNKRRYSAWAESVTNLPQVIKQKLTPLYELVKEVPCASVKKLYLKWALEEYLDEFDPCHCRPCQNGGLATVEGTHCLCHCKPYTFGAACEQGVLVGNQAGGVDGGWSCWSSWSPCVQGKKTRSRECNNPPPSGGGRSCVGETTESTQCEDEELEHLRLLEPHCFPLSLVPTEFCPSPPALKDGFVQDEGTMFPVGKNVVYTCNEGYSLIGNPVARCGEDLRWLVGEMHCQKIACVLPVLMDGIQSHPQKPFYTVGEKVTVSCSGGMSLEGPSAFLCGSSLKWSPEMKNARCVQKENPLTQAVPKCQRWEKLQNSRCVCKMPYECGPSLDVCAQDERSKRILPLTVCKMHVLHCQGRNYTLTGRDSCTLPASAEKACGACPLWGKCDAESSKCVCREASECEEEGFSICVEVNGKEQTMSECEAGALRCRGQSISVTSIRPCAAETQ

With `CC(=O)Oc1ccc(-c2ccc(OC(C)=O)c(C(=O)O)c2)cc1C(=O)O` [DAS-1, 4,4′-diacetoxy-[1,1′-biphenyl]-3,3′-dicarboxylic acid], the “binding to C7” value on C7 is “did not bind”. Besides, the “binding to C3” value at C3 is listed as “did not bind”. In addition, the “binding to C9” value on C9 is listed as “bound strongly”.

As to `CC(=O)Oc1ccc(Cc2ccc(OC(C)=O)c(C(=O)O)c2)cc1C(=O)O` [DAS-2, 5,5′-methylenebis(2-acetoxybenzoic acid)], the “binding to C7” value at C7 was “did not bind”. Moreover, the “binding to C3” value at C3 is listed as “did not bind”. In addition, the “binding to C9” value on C9 is reported as “bound strongly”.

Values taken from US9751824B2, “Acetyl salicyclic acid dimers, synthesis thereof, and uses thereof to prevent and treat complement-mediated disorders” (Aurin Biotech Inc., priority 2013, dated 2017).
